Row | Compound | melting point [°C]
1 | CC(c1ccc(F)cc1)N1CCN(c2cc(Oc3cccc4c(=O)[nH]ccc34)ncn2)CC1 (stereo not shown) [Example 72, 5-(6-(4-(1-(4-Fluorophenyl)ethyl)piperazin-1-yl)pyrimidin-4-yloxy)isoquinolin-1(2H)-one] | 249
2 | CC(c1ccc(F)cc1)N1CCN(c2cc(Oc3cccc4c3NCC(=O)N4)ncn2)CC1 (stereo not shown) [Example 71, 5-(6-(4-(1-(4-Fluorophenyl)ethyl)piperazin-1-yl)pyrimidin-4-yloxy)-3,4-dihydroquinoxalin-2-(1H)-one] | 221
3 | C[C@@H](c1ccc(F)cc1)N1CCN(c2cc(Oc3cccc4ncc(N)nc34)ncn2)CC1 [Example 54, (S)-8-(6-(4-(1-(4-Fluorophenyl)ethyl)piperazin-1-yl)pyrimidin-4-yloxy)quinoxalin-2-amine] | 114
4 | CC(=O)Nc1nc2c(Oc3cc(N4CCN([C@H](C)c5ccc(F)cc5)CC4)ncn3)cccc2s1 [Example 22, N-[4-(6-{4-[(1R)-1-(4-Fluoro-phenyl)-ethyl]-piperazine1-yl}-pyrimidin-4-yloxy)-benzothiazol-2-yl]-acetamide] | 243.8 to 245.9
5 | CC(=O)Nc1nc2c(Oc3cc(N4CCN([C@@H](C)c5ccc(F)cc5)CC4)ncn3)cccc2s1 [Example 21, N-[4-(6-{4-[(1S)-1-(4-Fluoro-phenyl)-ethyl]-piperazine 1-yl}-pyrimidin-4-yloxy)-benzothiazol-2-yl]-acetamide] | 243.6 to 245.7
6 | C[C@@H](c1ccc(F)cc1)N1CCN(c2cc(Oc3cccc4ccc(N)nc34)ncn2)CC1 [Example 24, 8-(6-{4-[(1S)-(4-Fluoro-phenyl)-ethyl]-piperazine-1-yl}-pyrimidin-4-yloxy)-quinolin-2-ylamine] | 167
7 | CC(=O)Nc1nc2c(Oc3cc(N4CCN(C(C)c5ccccc5F)CC4)ncn3)cccc2s1 (racemic) [Example 1, N-[4-(6-{4-[(1S,1R)-1-(2-Fluoro-phenyl)-ethyl]-piperazin-1-yl}-pyrimidin-4-yloxy)-benzothiazol-2-yl]-acetamide] | 202.6 to 204.3
8 | CC(c1ccc(F)cc1)N1CCN(c2cc(Oc3cccc4ccncc34)ncn2)CC1 (stereo not shown) [Example 70, 8-(6-(4-(1-(4-Fluorophenyl)ethyl)piperazin-1-yl)pyrimidin-4-yloxy)isoquinoline] | 114
9 | CC(c1ccc(F)cc1)N1CCN(c2cc(Oc3cccc4[nH]c(=O)ccc34)ncn2)CC1 (stereo not shown) [Example 61, 5-(6-(4-(1-(4-Fluorophenyl)ethyl)piperazin-1-yl)pyrimidin-4-yloxy)quinoline-2(1H)-one] | 242.2
10 | CC(=O)Nc1nc2c(Oc3cc(N4CCN(C(C)c5ccc(F)cc5)CC4)ncn3)cccc2s1 (racemic) [Example 2, N-[4-(6-{4-[(1S,1R)-1-(4-Fluoro-phenyl) -ethyl]-piperazine1-yl}-pyrimidin-4-yloxy)-benzothiazol-2-yl]-acetamide] | 247.3
11 | CC(=O)Nc1nc2c(Oc3cc(N4CCN(C(C)c5ccc(F)cc5)CC4)ncn3)cccc2o1 (stereo not shown) [Example 66, N-(4-(6-(4-(1-(4-Fluorophenyl)ethyl)piperazin-1-yl)pyrimidin-4-yloxy)benzo[d]oxazol-2-yl)acetamide] | 199.8
12 | C[C@H](c1ccc(F)cc1)N1CCN(c2cc(Oc3cccc4ncc(N)nc34)ncn2)CC1 [Example 55, (R)-8-(6-(4-(1-(4-Fluorophenyl)ethyl)piperazin-1-yl)pyrimidin-4-yloxy)quinoxalin-2-amine] | 118
13 | CC(=O)Nc1ccc2cccc(Oc3cc(N4CCN([C@H](C)c5ccc(F)cc5)CC4)ncn3)c2n1 [Example 69, (R)-N-(8-(6-(4-(1-(4-Fluorophenyl)ethyl)piperazin-1-yl)pyrimidin-4-yloxy)quinolin-2-yl)acetamide] | 134

Results, then the compound that gave them:

Row | melting point [°C] | Compound
14 | 288 | C[C@@H](c1ccc(F)cc1)N1CCN(c2cc(Oc3cc(F)cc4[nH]c(=O)c(N)nc34)ncn2)CC1 [Example 58, (S)-3-Amino-7-fluoro-5-(6-(4-(1-(4-fluorophenyl)ethyl)piperazin-1-yl)pyrimidin-4-yloxy)quinoxalin-2(1H)-one]
15 | 222 | CC(c1ccc(F)cc1)N1CCN(c2cc(Oc3cccc4sc(N)nc34)ncn2)CC1 (stereo not shown) [Example 52, 4-(6-(4-(1-(4-Fluorophenyl)ethyl)piperazin-1-yl)pyrimidin-4-yloxy)benzo[d]thiazol-2-amine]
16 | 294.5 to 295.3 | C[C@@H](c1ccc(F)cc1)N1CCN(c2cc(Oc3cccc4[nH]c(=O)c(N)nc34)ncn2)CC1 [Example 27, 3-Amino-5-(6-{4-[(1S)-1-(4-fluoro-phenyl)-ethyl]-piperazin-1-yl}-pyrimidin-4-yloxy)-1H-quinoxalin-2-one]
17 | 256 | C[C@H](c1ccc(F)cc1)N1CCN(c2cc(Oc3cccc4c3nc(N)c(=O)n4C)ncn2)CC1 [Example 59, (R)-3-Amino-5-(6-(4-(1-(4-fluorophenyl)ethyl)piperazin-1-yl)pyrimidin-4-yloxy)-1-methylquinoxalin-2(1H)-one]
18 | 315 | C[C@H](c1ccc(F)cc1)N1CCN(c2cc(Oc3cc(F)cc4[nH]c(=O)c(N)nc34)ncn2)CC1 [Example 57, (R)-3-Amino-7-fluoro-5-(6-(4-(1-(4-fluorophenyl)ethyl)piperazin-1-yl)pyrimidin-4-yloxy)quinoxalin-2(1H)-one]
19 | 292.2 to 293.9 | C[C@H](c1ccc(F)cc1)N1CCN(c2cc(Oc3cccc4[nH]c(=O)c(N)nc34)ncn2)CC1 [Example 26, 3-Amino-5-(6-{4-[(1R)-1-(4-fluoro-phenyl)-ethyl]-piperazin-1-yl}-pyrimidin-4-yloxy)-1H-quinoxalin-2-one]

Source: patent US7511044B2, “Vanilloid receptor ligands and their use in treatments” (Amgen Inc., priority 2004, dated 2009)
